In article PMC7216583 (Parasites & Vectors, 2020):
Structures can show the parent of a compound that is named as a salt. Where two headings read alike, the source gives them in different places.

Key:
Bcl-2 = target: Bcl-2; design: method as in library vendor description; settings: ref library vendor description; cited from earlier work
[1] = test system: Toxoplasma gondii RH-2F tachyzoites; assay: microbe, parasite or virus in culture; settings: 72 h
in vitro = settings: human; for viability at 72 h: Host viability (%) mean
Abl = test system: Abl; design: method as in S-inhibitor; settings: ref S-inhibitor; read-out: IC50, Abl; cited from earlier work
Aurora A = test system: Aurora A; design: method as in S-inhibitor; settings: ref S-inhibitor; cited from earlier work
CDK7 = test system: CDK7; design: method as in S-inhibitor; settings: ref S-inhibitor; cited from earlier work
PI3Kδ = test system: PI3Kδ; design: method as in library vendor description; settings: ref library vendor description; cited from earlier work
mTOR [2] = test system: mTOR; design: method as in S-inhibitor; settings: ref S-inhibitor; cited from earlier work
mTOR [3] = test system: mTOR; design: method as in vendor brief description; settings: ref vendor brief description; cited from earlier work
Kir2.1 = test system: Kir2.1; design: method as in vendor brief description; settings: ref vendor brief description, cited from earlier work
hTRPV1 = test system: hTRPV1; design: method as in S-inhibitor catalog; settings: in HEK293 cells; vendor brief description; ref S-inhibitor catalog; cited from earlier work
Syk = test system: Syk; design: method as in S-inhibitor; settings: ref S-inhibitor; cited from earlier work
Smoothened (Smo) = test system: Smoothened (Smo); design: method as in S-inhibitor catalog; settings: vendor brief description; ref S-inhibitor catalog; cited from earlier work
H3-receptor = target: H3-receptor; design: method as in vendor brief description; settings: ref vendor brief description, cited from earlier work
VEGFR2 [4] = test system: VEGFR2; design: method as in S-inhibitor; settings: ref S-inhibitor; cited from earlier work
c-Met [5] = test system: c-Met; design: method as in S-inhibitor; settings: ref S-inhibitor; cited from earlier work
HDAC = test system: HDAC; design: method as in S-inhibitor catalog; settings: vendor brief description; ref S-inhibitor catalog; cited from earlier work
HSP90 = test system: HSP90; design: method as in S-inhibitor catalog; settings: vendor brief description; ref S-inhibitor catalog; cited from earlier work
FGFR1 = settings: read-out: IC50, FGFR1; vendor brief description; ref S-inhibitor catalog; cited from earlier work
5-HT2B = test system: 5-HT2B; design: method as in S-inhibitor catalog; settings: vendor brief description; ref S-inhibitor catalog; cited from earlier work
Akt1 = test system: Akt1; design: method as in vendor brief description; settings: ref vendor brief description; cited from earlier work
[6] = test system: Toxoplasma gondii RH-2F tachyzoites
c-Met [7] = test system: c-Met; design: method as in S-inhibitor catalog; settings: vendor brief description; ref S-inhibitor catalog; cited from earlier work
CYP17 = test system: CYP17; design: method as in S-inhibitor catalog; settings: vendor brief description; ref S-inhibitor catalog; cited from earlier work
OX1 = target: OX1; design: method as in S-inhibitor; settings: ref S-inhibitor, cited from earlier work
PDGFR = settings: read-out: IC50 PDGFR; ref library vendor description; cited from earlier work
c-Kit [8] = test system: c-Kit; design: method as in library vendor description; settings: ref library vendor description; cited from earlier work
p110β = test system: p110β; design: method as in S-inhibitor; settings: ref S-inhibitor; cited from earlier work
p110γ = test system: p110γ; design: method as in S-inhibitor; settings: ref S-inhibitor; cited from earlier work
EGFR = test system: EGFR; design: method as in library vendor description; settings: ref library vendor description; cited from earlier work
CDK = test system: CDK; design: method as in S-inhibitor catalog; settings: vendor brief description; ref S-inhibitor catalog; cited from earlier work
[9] = target: N-methyl-D-aspartate (NMDA) receptor; design: method as in vendor brief description; settings: ref vendor brief description; cited from earlier work
VEGFR1 = test system: VEGFR1; design: method as in library vendor description; settings: ref library vendor description; cited from earlier work
CDK1 = test system: CDK1; design: method as in S-inhibitor catalog; settings: vendor brief description; ref S-inhibitor catalog; cited from earlier work
CDK9 = test system: CDK9; design: method as in S-inhibitor catalog; settings: vendor brief description; ref S-inhibitor catalog; cited from earlier work
HIV protease = target: HIV protease; design: method as in S-inhibitor; settings: ref S-inhibitor; cited from earlier work
ErbB1 = test system: ErbB1; design: method as in S-inhibitor catalog; settings: vendor brief description; ref S-inhibitor catalog; cited from earlier work
ErbB2 = test system: ErbB2; design: method as in S-inhibitor catalog; settings: vendor brief description; ref S-inhibitor catalog; cited from earlier work
c-Kit [10] = test system: c-Kit; design: method as in S-inhibitor catalog; settings: vendor brief description; ref S-inhibitor catalog; cited from earlier work
HDAC8 = test system: HDAC8; design: method as in S-inhibitor; settings: ref S-inhibitor; cited from earlier work
VEGFR2 [11] = test system: VEGFR2; design: method as in S-inhibitor catalog; settings: vendor brief description; ref S-inhibitor catalog; cited from earlier work
[12] = read-out: Parasite inhibition (%) mean, preliminary screen, mean
[13] = read-out: Parasite inhibition (%) mean, preliminary screen of compound library, mean

## COC1=CC(c2cc3ccccc3[nH]2)=N/C1=C\c1[nH]c(C)cc1C [Obatoclax mesylate (GX15-070)]
Bcl-2
  Ki: 220 nM
[1]; [12]
  inhibition of growth at 5 µM: 52.7%

## O=C(c1ccc(/C=C/c2n[nH]c3ccccc23)cc1)N1CCNCC1 [KW 2449]
In vitro
  viability at 72 h: 55.6%
[1]; [12]
  inhibition of growth at 5 µM: 70.2%
Abl
  IC50: 14 nM
Aurora A
  IC50: 48 nM

## CC(C)c1cnn2c(NCc3ccccc3)cc(NCCCCCCN)nc12 [BS-181 HCl]
[1]; [12]
  inhibition of growth at 5 µM: 5.7%
CDK7
  IC50: 21 nM

## Cc1ccccc1-n1c(Cn2cnc3c(N)ncnc32)nc2cccc(C)c2c1=O [IC-87114]
[1]; [12]
  inhibition of growth at 5 µM: 11.1%
PI3Kδ
  IC50: […]

## COc1ccc(-c2ccc3c(N4CCOC[C@@H]4C)nc(N4CCOC[C@@H]4C)nc3n2)cc1CO [AZD8055]
[1]; [12]
  inhibition of growth at 5 µM: 45.7%
mTOR [2]
  IC50: 0.8 nM

## CC(C)n1nc(-c2ccc3oc(N)nc3c2)c2c(N)ncnc21 [INK 128 (MLN0128)]
mTOR [3]
  IC50: 1 nM
[1]; [13]
  inhibition of growth at 5 µM: 27.8%

## COc1ccc(CNCc2cccc3ccccc23)cc1 [ML133 HCl]
[1]; [13]
  inhibition of growth at 5 µM: 0.7%
Kir2.1; pH 7.4
  IC50: 1800 nM
Kir2.1; pH 8.5
  IC50: 290 nM

## O=C(Nc1ccccc1Br)N[C@@H]1CCN(c2ccc(C(F)(F)F)cn2)C1 [SB705498]
[1]; [13]
  inhibition of growth at 5 µM: 0.6%
hTRPV1
  pIC50, hTRPV1: 7.1
  pKi, hTRPV1: 7.6

## Cc1cnc(-c2cc(N3CCN(C(=O)CCS(C)(=O)=O)CC3)ncc2Cl)c(C)c1 [PF-5274857]
Smoothened (Smo)
  IC50: 5.8 nM
  Ki: 4.6 nM
[1]; [13]
  inhibition of growth at 5 µM: -0.8%

## O=C(c1ccc(OCCCc2cnc[nH]2)cc1)C1CC1 [Ciproxifan]
[1]; [13]
  inhibition of growth at 5 µM: 0.5%
H3-receptor; read-out: IC50 H3-receptor
  IC50: 9.2 nM

## Nc1nccc(Oc2ccc(NC(=O)c3c[nH]cc(-c4ccc(F)cc4)c3=O)cc2F)c1Cl [BMS 794833]
VEGFR2 [4]
  IC50: 15 nM
In vitro
  viability at 72 h: 70.6%
[1]; [12]
  inhibition of growth at 5 µM: 88.4%
c-Met [5]
  IC50: 1.7 nM

## CNCCc1ccccn1 [Betahistine 2HCl]
[1]; [13]
  inhibition of growth at 5 µM: 3.2%
H3-receptor; read-out: IC50 histamine H3 receptors
  IC50: 1900 nM

## CN(C)c1ccc(C(=O)NCCCCCCC(=O)NO)cc1 [M344]
[1]; [13]
  inhibition of growth at 5 µM: 44.6%
HDAC
  IC50: 100 nM

## CCc1c(O)cc(O)c(C(=O)c2ccc(OCCN3CCOCC3)c(OC)c2)c1CC(=O)N(CCOC)CCOC [KW-2478]
[1]; [13]
  inhibition of growth at 5 µM: 7.8%
HSP90
  IC50: 3.8 nM

## CCN1CCN(C(=O)Cc2ccc(Nc3ncc(F)c(Nc4ccc(C(=O)Nc5ccccc5Cl)cc4)n3)cc2)CC1 [Aurora A Inhibitor I]
[1]; [12]
  inhibition of growth at 5 µM: 60.8%
Aurora A
  IC50: 3.4 nM

## COc1cc(Nc2ncc(F)c(Nc3ccc4c(n3)NC(=O)C(C)(C)O4)n2)cc(OC)c1OC [R406 (free base)]
Syk
  IC50: 41 nM

## AZD4547
FGFR1
  IC50: 0.2 nM

## CC(C)c1cc(-c2ccc(F)c3ccccc23)nc(N)n1 [RS-127445]
5-HT2B
  pIC50, 5-HT2B: 10.4
  pKi, 5-HT2B: 9.5
[1]; [13]
  inhibition of growth at 5 µM: -0.7%

## CCNC(=O)Nc1ccc(-c2nc3c(c(N4CCOC[C@@H]4C)n2)CCN(C2COC2)C3)cc1 [GDC-0349]
mTOR [3]
  Ki: 3.8 nM
[1]; [13]
  inhibition of growth at 5 µM: -13.8%

## AZD5363
Akt1
  IC50: 3 nM
[6]; preliminary screen of compound library, mean
  Parasite inhibition (%) mean: 33.4%

## Cn1cc(-c2ccc3ncc(Cc4ccc5ncccc5c4)n3n2)cn1 [NVP-BVU972]
[1]; [13]
  inhibition of growth at 5 µM: 38.8%
c-Met [7]
  IC50: 14 nM

## CC(=O)O[C@H]1CC[C@@]2(C)C(=CC[C@H]3[C@H]2CC[C@]2(C)C(c4cccnc4)=CC[C@@H]32)C1 [Abiraterone Acetate (CB7630)]
[1]; [13]
  inhibition of growth at 5 µM: 0.7%
CYP17
  IC50: 72 nM

## Cc1cc(NC(=O)Nc2ccc(N(C)C)cc2)c2cc(F)cc(F)c2n1 [SB-408124, reference compound]
[1]; [12]
  inhibition of growth at 5 µM: -80.4%
[6]; 5 μM, 72 h
  effect on T. gondii growth in the screen: no effect on T. gondii growth
OX1; membrane
  Ki: 27 nM
OX1; whole cell
  Ki: 57 nM

## CC1(C)CNc2cc(NC(=O)c3cccnc3NCc3ccncc3)ccc21 [Motesanib Diphosphate (AMG-706)]
[1]; [12]
  inhibition of growth at 5 µM: -36.6%
PDGFR
  IC50: 84 nM
c-Kit [8]
  IC50: 8 nM

## COc1cc(Nc2nc3ccccc3nc2NS(=O)(=O)c2ccc(NC(=O)c3ccc(C)c(OC)c3)cc2)cc(OC)c1 [XL765 (SAR245409)]
p110β
  IC50: 113 nM
[1]; [12]
  inhibition of growth at 5 µM: 46.6%
mTOR [2]
  IC50: 157 nM
p110γ
  IC50: 9 nM

## COc1cc2ncnc(Nc3cccc(Br)c3)c2cc1OC [PD153035 HCl]
EGFR
  IC50: […]
[1]; [12]
  inhibition of growth at 5 µM: -9.7%

## COc1ccc(F)c(F)c1C(=O)c1cnc(NC2CCN(S(C)(=O)=O)CC2)nc1N [R547]
CDK
  IC50: 80 nM
  Ki: 1 to 3 nM
[1]; [13]
  inhibition of growth at 5 µM: 11.7%

## C[C@]12N[C@H](Cc3ccccc31)c1ccccc12 [Dizocilpine (MK 801)]
[9]
  Ki: 30.5 nM
[1]; [13]
  inhibition of growth at 5 µM: 0.4%

## Cc1ccc(Nc2nccc(N(C)c3ccc4c(C)n(C)nc4c3)n2)cc1S(N)(=O)=O [Pazopanib HCl]
VEGFR1
  IC50: 10 nM
[1]; [12]
  inhibition of growth at 5 µM: -2.6%
PDGFR
  IC50: 84 nM

## Cc1ncc(-c2ccnc(Nc3ccc(S(C)(=O)=O)cc3)n2)n1C(C)C [AZD5438]
[1]; [13]
  inhibition of growth at 5 µM: 6.8%
CDK1
  IC50: 16 nM
CDK9
  IC50: 20 nM

## COC(=O)N[C@H](C(=O)N[C@@H](Cc1ccccc1)[C@@H](O)CN(Cc1ccc(-c2ccccn2)cc1)NC(=O)[C@@H](NC(=O)OC)C(C)(C)C)C(C)(C)C [Atazanavir sulfate]
In vitro
  viability: 90.7%
[1]; [12]
  inhibition of growth at 5 µM: 93.6%
HIV protease
  Ki: 2.66 nM

## Cc1cccc(C)c1OCC(=O)N[C@@H](Cc1ccccc1)[C@@H](O)C[C@H](Cc1ccccc1)NC(=O)[C@H](C(C)C)N1CCCNC1=O [Lopinavir (ABT-378)]
[1]; [12]
  inhibition of growth at 5 µM: 0.9%
HIV protease
  Ki: 0.0013 nM

## CC(C)[C@H](C(=O)Nc1ccc(C(=O)NO)cc1)c1ccccc1 [AR-42 (HDAC-42)]
[1]; [13]
  inhibition of growth at 5 µM: 61%
HDAC
  IC50: 30 nM

## C[C@@H]1COC(Nc2ccc3ncnc(Nc4ccc(OCc5nccs5)c(Cl)c4)c3c2)=N1 [ARRY334543]
ErbB1
  IC50: 7 nM
[1]; [13]
  inhibition of growth at 5 µM: 12.4%
ErbB2
  IC50: 2 nM

## CN1CCN(c2ccc3nc(-c4c(N)c5c(F)cccc5[nH]c4=O)[nH]c3c2)CC1
c-Kit [10]
  IC50: 2 nM

## C[C@]12CC[C@H](O)CC1=CCC1C2CC[C@]2(C)C(n3cnc4ccccc43)=CCC12 (stereo partly drawn) [Galeterone (TOK-001)]
[1]; [13]
  inhibition of growth at 5 µM: 0.4%
CYP17
  IC50: 300 nM

## COc1ccc(Cn2ccc3ccc(C(=O)NO)cc32)cc1 [PCI-34051]
[1]; [12]
  inhibition of growth at 5 µM: 5.7%
HDAC8
  IC50: 10 nM

## N#CC1(c2ccc(NC(=O)c3cccnc3NCc3ccncc3)cc2)CCCC1 [Apatinib (YN968D1)]
In vitro
  viability at 72 h: 63.8%
VEGFR2 [11]
  IC50: 1 nM
[1]; [13]
  inhibition of growth at 5 µM: 77.6%
